Measurements reported in article PMC7618036, “An oral heme oxygenase inhibitor targets immunosuppressive perivascular macrophages in preclinical models of cancer” (Science translational medicine, 2025).

Tests used:
[1] = tested on: CD8^+ T-cells in MMTV-PyMT tumors; experiment: Flow cytometry of the TME of MMTV-PyMT tumors after 36 h treatment; format: in vivo, mouse; details: single-agent therapy
Description: At 36 h post treatment initiation of treatment mice were sacrificed and tumors were harvested and analyzed. (A) Schematic representing the dosing strategy. (B) The fold change of tumor growth over 36 h post initiation of treatment. (C-G) Tumors were enzyme-digested to release single cells which were analyzed for their live (7AAD^-) stromal cell composition using flow cytometry (n=5 tumors per group) (C) and CD8^+ T-cells (D). Gating strategy (left panel) and quantitation of CD8^+ T-cell subsets based on CD62L and CD44 expressions (right panel; TCM; T central memory cells, TEM; T effector memory cells, Teff; T effectors cells) (E), and the ability of the tumoral CD8^+ T-cells to secrete IFNγ post ex vivo exposure to PMA/ionomycin treatment (F). […] Scale bar is 100 µm and white arrows indicate infiltrating CD8^+ T-cells. […] Image in panel (A) was created using BioRender. Bar charts show the mean, error bars SD, and the dots show individual data points from individual tumors and mice. Gemc.; gemcitabine. * P<0.05, ** P<0.01, *** P<0.001.
MN-MCA1 sarcoma cells were orthotopically implanted into syngeneic C57Bl/6 mice for tumors. A total of 2.5 x 10^5 cells in 100 μL RPMI were injected subcutaneously into female mice. […] When tumors became palpable, volumes were measured every 2-4 days using digital caliper measurements of the long (L) and short (S) dimensions of the tumor. […]

MMTV-PyMT tumors = experiment: Tumor growth in MMTV-PyMT mice bearing established spontaneous tumors; format: in vivo, mouse; details: single agent, i.p. 25 µMol/kg/day
Description: Vertical dashed black lines mark the start of treatment (day 0) and horizontal red line marks 250 mm^3. Solid lines represent individual tumors and mice. Images in panel (A) and (B) were created using BioRender. ** P<0.01.
(D-G) The MMTV-PyMT mice in (B) were evaluated for evidence of toxicity, including weight change from treatment initiation (D), end of treatment (day 21) plasma ratio of AST:ALT enzymes (E), blood circulating immune cells assessed using flow cytometry (F) and pathology assessment of inflammatory cell infiltrate in the lungs alongside an additional cohort or WT non-tumor bearing mice given dual treatment for 21 days and then assessed at treatment cessation or 30 days after treatment cessation (G). Image in panel (A) was created using BioRender. Bar charts show the mean, error bars SD, and the dots show individual data points from individual tumors and mice. Line charts display the mean and SEM. Gemc.; gemcitabine. * P<0.05, ** P<0.01.
MN-MCA1 sarcoma cells were orthotopically implanted into syngeneic C57Bl/6 mice for tumors. A total of 2.5 x 10^5 cells in 100 μL RPMI were injected subcutaneously into female mice. In MMTV-PyMT mice, tumors arose spontaneously. When tumors became palpable, volumes were measured every 2-4 days using digital caliper measurements of the long (L) and short (S) dimensions of the tumor. […]

[2] = set-up: method as in PMID 2714739; details: cited from earlier work

| Molecule | abundance of CD8^+ T-cells in the TME [1] | tumor growth (MMTV-PyMT tumors) | oral bioavailability [2] | serum half-life [2] |
| --- | --- | --- | --- | --- |
| Nc1ccn([C@@H]2O[C@H](CO)[C@@H](O)C2(F)F)c(=O)n1 [gemcitabine] | increase in the abundance of CD8^+ T-cells |  |  |  |
| Sn (IV) mesoporphyrin IX dichloride [SnMP] |  | did not control tumor growth | not orally bioavailable | short |
